Test results: PMC4060991, “The Human Orphan Nuclear Receptor Tailless (TLX, NR2E1) Is Druggable” (PLoS ONE, 2014)

Tests used:
[1] = target: TLX LBD (Homo sapiens, UniProt Q9Y466); test: Biolayer interferometry (Octet Red 384) direct binding to immobilized TLX LBD; design: cDNA fragments encoding human TLX LBD (a.a. 187–385) were cloned; His6 followed by TEV protease cleavage site (N); made in house; host or cells: E. coli BL21 (DE3) star; details: for association/dissociation behaviour (sensorgram): dose-response curves; for maximum binding response (plateau): highest concentrations tested, expected maximum 0.08–0.1 nm for 1:1
Sequence of TLX LBD (Q9Y466 187-385): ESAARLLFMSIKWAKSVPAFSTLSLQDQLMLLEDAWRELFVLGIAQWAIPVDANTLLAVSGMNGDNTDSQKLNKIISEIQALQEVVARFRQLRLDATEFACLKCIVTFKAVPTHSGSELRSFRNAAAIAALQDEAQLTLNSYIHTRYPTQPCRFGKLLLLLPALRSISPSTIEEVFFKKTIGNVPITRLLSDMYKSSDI
Method: Cloning was accomplished with a standard double digest cloning protocol after PCR according to manufacturer’s protocol (Avidity), and the plasmid was sequenced (ACGT, Inc). […] A duplicate set of sensors which serve as reference surfaces were incubated in […] solution of blocked biotinylated Streptavidin protein (Scripps Laboratories) to a loading signal of about 5.5 nm as described by manufacturer’s protocol (FortéBio). Binding of the individual compounds (100 µM) or 1% DMSO (solvent control) was measured over immobilized TLX LBD target biosensors and reference surfaces. Corrected binding response sensorgrams were recorded and analyzed. Data analysis on the FortéBio Octet RED instrument was performed using the FortéBio data analysis software. The analysis accounts for non-specific binding, background, and signal drift and minimizes well based and sensor variability.
The corresponding equilibrium dissociation constants (KD) were determined using steady state analysis of compounds binding affinities, assuming 1∶1 ligand - protein stoichiometry.

[2] = target: ERβ LBD (Homo sapiens, UniProt Q92731); test: DSF on purified ERβ LBD; details: compound 500 µM; unliganded Tm ∼51°C
Sequence of ERβ LBD (Q92731 261-530): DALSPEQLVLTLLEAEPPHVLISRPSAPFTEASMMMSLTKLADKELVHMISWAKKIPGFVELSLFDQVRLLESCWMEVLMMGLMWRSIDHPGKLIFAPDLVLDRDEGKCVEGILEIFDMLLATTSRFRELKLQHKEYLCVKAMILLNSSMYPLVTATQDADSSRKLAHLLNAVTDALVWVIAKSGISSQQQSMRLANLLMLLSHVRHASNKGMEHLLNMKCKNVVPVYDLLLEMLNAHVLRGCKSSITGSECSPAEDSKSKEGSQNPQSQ
Method: Protein stability was assessed with DSF in absence or presence of test compounds in a LightCycler 480 II qRT-PCR Detection System (Roche) in 384-well format. Sypro-Orange dye (Life Technologies) was used to monitor fluorescence, with filters for fluorescence excitation at 465 nm and for fluorescence emission at 610 nm. […] Tested sample mixtures were heated from 25°C to 96°C at a rate of 0.05°C/sec with 11 acquisitions per °C. Each compound was tested in duplicates. The melting temperature (Tm) for each sample was deduced by the ThermoQ Analytical software (HMRI) from the first derivative of the corresponding denaturation curve generated by the LightCycler 480 software. The same protocol was applied to investigate the stability of purified ERβ and LXRβ LBDs in presence or absence of the compounds. The optimal final concentrations for these experiments were 0.02 mg/mL for ERβ LBD and 0.20 mg/mL for LXRβ LBD. All DSF-based analyses were performed using freshly purified protein.

| SMILES | association/dissociation behaviour (sensorgram) [1] | maximum binding response (plateau) [1] | melting temperature shift of ERβ LBD [2] |
| --- | --- | --- | --- |
| CC(C)c1c(CN(C)C(C)Cc2ccccc2)n(C)n(-c2ccccc2)c1=O (stereo not drawn) [ccrp1, Famprofazone] | quick association and dissociation | 0.04 nm | Neither compound demonstrates any significant effect on the melting temperatures |
| Cc1cc(C(=O)N2CCN(C(c3ccccc3)c3ccccc3)CC2)nn1C [ccrp2, 1-(1,5-dimethylpyrazole-3-carbonyl)-4-(diphenylmethyl)piperazine] | quick association and dissociation | 0.06–0.1 nm | Neither compound demonstrates any significant effect on the melting temperatures |
| CC(=O)[C@H]1CC[C@H]2[C@@H]3C=CC4=CC(=O)CC[C@@]4(C)[C@@H]3CC[C@]12C [ccrp3, Dydrogesterone] | quick association and dissociation | 0.06–0.1 nm | Neither compound demonstrates any significant effect on the melting temperatures |
